Like-named read-outs stand apart in the source and are kept apart here. Square brackets hold non-standard residues; d marks the D form. Peptide text beside a SMILES is read from it. Phe(ol) = N[C@H](CO)Cc1ccccc1; Leu(ol) = CC(C)C[C@H](N)CO; dIva = CC[C@@](C)(N)C(=O)O; Aib = CC(C)(N)C(=O)O
Experiments:
[1] = tested on: HepG2 cells; test: HepG2 cytotoxicity assay (MTS); format: cell-based, H. sapiens; settings: for EC50: 48 h, MTS, absorbance 490 nm, highest concentration 25 μM, mean ± SEM, biological triplicate; for cytotoxicity in HepG2: highest concentration tested 25 μM
Method: HepG2 cells are grown at 37°C in DMEM with 10% FBS, 1% Antibiotic/Antimycotic, 0.3% NaHCO3, 5 mM HEPES pH 7.4, and 2 mM L-glutamine as needed in an atmosphere containing 5% CO2.
The cytotoxicity assay was performed as reported previously.[35] HepG2 cells were seeded at ∼2,250 cells per well 24 h prior to compound addition. Cells were then incubated for an additional 48 h prior to the addition of MTS and absorbance reading at 490 nm on Synergy Neo2 multimode reader (BioTek, Winsooki, VT). Cytotoxicity EC50 values were determined using CDD Vault (https://www.collaborativedrug.com/).

[2] = tested on: HZ NPDG-I-resistant Dd2 clones (pfmdr1 mutants); format: cell-based, P. falciparum; settings: for Fold Change in IC50 vs the parental line, clone 1B2 / Fold Change in IC50 vs the parental line, clone 1E2 / Fold Change in IC50 vs the parental line, clone 2B3 / Fold Change in IC50 vs the parental line, clone 3A3: Figure S5, 72 h, SYTO 61 flow cytometry; for pfMDR1 Clone Sensitivity: Figure 7A summary; for pfMDR1 Clone Sensitivity: key: -: A '–' indicates a negative finding; a single '+' indicates a positive finding; a double '++' indicates a strong positive finding
Method: Screening of HZ NPDG-I resistant clones was performed at 1% parasitemia, 0.2% hematocrit with flow cytometry in V-shaped 96-well plates. Briefly, compounds were subjected to a 3-fold serial dilution with the highest concentration set at 4 μM or 8 μM. Eleven dilution points were included in addition to no-drug controls. Three technical replicates were set up for each compound at each dilution point. The Dd2-B2 parent line, or the clonal line 1B2, 2B3, 3A3, or 1E2 were added at 0.4% hematocrit and 1% parasitemia to the diluted compounds at a 1:1 ratio. The plate was incubated at 37°C for 72 h in a chamber filled with a hypoxic gas mixture (3% oxygen, 5% carbon dioxide, and 92% nitrogen). After incubation, a blood pellet was formed at the bottom of each well of the 96-well plate. Supernatant was removed without disturbing the pellet, and 20 μl of SYTO 61(1:10,000 dilution; Thermo Fisher Scientific, Cat No. S11343) in PBS was added to each well and incubated for 15 mins at room temperature. The cells in each well were then diluted with 180 μl of PBS and subjected to flow cytometry for parasitemia determination using the HTS (High-Throughput Sampler) of BD FACSCanto II (BD Biosciences, NJ). Flow cytometry data was analyzed using FlowJo Version 10.4.0. Dose response curves were generated and IC50 values obtained with GraphPad Prism Version 9.1.1.
A clone of the Dd2 strain (Dd2-B2) of P. falciparum was used for in vitro evolution of resistance against harzianin NPDG I. Three flasks of 1.2 x 10^8 parasites were continuously exposed to a stepwise-increasing concentration of the compound over ∼3 months starting from 20 nM up to a final concentration of 100 nM. Once a stable rightward shift in 72 h IC50 was observed, cultures were subjected to limiting dilution to obtained harzianin-resistant clones. Each clone was expanded, phenotyped to confirm resistance, and submitted for whole genome sequencing. An untreated flask of Dd2-B2 parasites was maintained in parallel throughout the course of in vitro selection as a control.

[3] = tested on: PfMDR1 cKD parasite line; test: MDR1 compound susceptibility assay (Renilla luciferase); for pfMDR1 cKD Sensitivity: key: -: A '–' indicates a negative finding; a single '+' indicates a positive finding; a double '++' indicates a strong positive finding; format: cell-based, P. falciparum; settings: for shift in sensitivity upon PfMDR1 knockdown: with (0.5 μM) vs without aTc, 72 h, luminescence; for pfMDR1 cKD Sensitivity: Figure 7A summary / graphical abstract
From the text: A conditional knockdown parasite line was generated for the P. falciparum multi-drug resistance 1 (MDR1; PF3D7_0523000) following previously described procedures.[84]^,[85] The native PfMDR1 locus was engineered using CRISPR/SpCas9 to afford transcriptional fusion of 10 tandem TetR-DOZI binding aptamers in the 3′UTR for anhydrotetracycline (aTc)-dependent regulation of PfMDR1 expression.
As a control cell line, a parasite line expressing an aptamer-regulatable fluorescent protein integrated in the cg6 locus[84] was assayed in parallel. Synchronous ring-stage parasites in the presence (0.5 μM) and absence of aTc were dispensed into 384-well polystyrene microplates (Corning®), and compounds added using the Janus® platform (PerkinElmer). DMSO- and DHA (0.5 μM) served as normalization controls for maximal and minimum signal. Luminescence was measured after 72 h and IC50 values were obtained from normalized dose-response curves using GraphPad Prism Version 8.

[4] = tested on: Dd2 strain parasites, digestive vacuole; test: Transmission electron microscopy of treated parasites; note: key: -: A '–' indicates a negative finding; a single '+' indicates a positive finding; a double '++' indicates a strong positive finding; format: cell-based, P. falciparum; settings: Figure 7A summary
Method: For TEM imaging, samples were prepared as previously described.[67] […] Culture was collected by centrifugation and washed with PBS, pH 7.4. Samples were then fixed in 2% paraformaldehyde, 2.5% glutaraldehyde, in a 0.1 M sodium cacodylate buffer, pH of 7.4, (Electron Microscopy Sciences, Hatfield, PA) and incubated for 2 h at room temp with mild shaking. After fixation, samples were pelleted and stored cold but not frozen in 0.2 M sodium cacodylate buffer prior to staining and embedment in Eponate 12 resin (Ted Pella Inc.). Images were taken using a JEOL 1200 EX transmission electron microscope (JEOL USA Inc., Peabody MA) and processed in AMT Image Capture Engine V602 software (Advanced Microscopy Techniques, Woburn, MA.).

[5] = tested on: P. falciparum asexual blood stage parasites grown in 10% human serum; test: Antiplasmodial activity with serum media; format: cell-based; settings: RPMI with 10% human serum, maintained minimum 2 weeks; mean ± SEM from 3 biological replicates
Method: Asexual blood stage parasites grown in the Chakrabarti laboratory were cultured based on a protocol by Trager and Jensen[57] with some modifications.[35] […] For comparison screening using serum vs Albumax II, culture media was changed from RPMI with 0.5% Albumax II to RPMI with 10% human serum and maintained for a minimum of 2 weeks prior to assay use.
Inhibitor EC50 determination in 3D7 and Dd2 was performed as discussed in,[35] based on established protocols.[60] Assays utilized asynchronous culture at 1% parasitemia, 1% hematocrit. Culture was incubated with compound dilutions for 72 h followed by freezing at −80°C to promote lysis, then thawing and incubation for 45 min–1 h with 1× SYBR Green I in a lysis buffer (20 mM Tris-HCL, 0.08% saponin, 5 mM EDTA, and 0.8% Triton X-100). Fluorescence was read 485 nm excitation, 530 nm emission on a Synergy Neo2 multimode reader (BioTek Winsooki, VT) and EC50 curves were generated using CDD Vault (https://www.collaborativedrug.com/).

CC(=O)NC(C)(C)C(=O)N1CCC[C@H]1C(=O)NC(C)(C)C(=O)N[C@@H](C)C(=O)NC(C)(C)C(=O)N[C@@H](C)C(=O)N[C@@H](CCC(N)=O)C(=O)NC(C)(C)C(=O)N[C@H](C(=O)NC(C)(C)C(=O)NCC(=O)N[C@@H](CC(C)C)C(=O)NC(C)(C)C(=O)N1CCC[C@H]1C(=O)N[C@H](C(=O)NC(C)(C)C(=O)NC(C)(C)C(=O)N[C@@H](CCC(=O)O)C(=O)N[C@@H](CCC(N)=O)C(=O)N[C@H](CO)Cc1ccccc1)C(C)C)C(C)C [Alamethicin, reference compound] (Ac-[Aib]P[Aib]A[Aib]AQ[Aib]V[Aib]GL[Aib]PV[Aib][Aib]EQ[Phe(ol)]; N-terminus assumed)
EC50 [1]: 6600 ± 100 nM | cytotoxicity in HepG2 [1]: Minor cytotoxicity | Fold Change in IC50 vs the parental line, clone 1B2 [2]: 0.55 | Fold Change in IC50 vs the parental line, clone 1E2 [2]: 0.45 | Fold Change in IC50 vs the parental line, clone 2B3 [2]: 0.63 | Fold Change in IC50 vs the parental line, clone 3A3 [2]: 0.54 | shift in sensitivity upon PfMDR1 knockdown [3]: no differential sensitivity

CC[C@@](C)(NC(=O)C(C)(C)NC(=O)[C@H](CC(C)C)NC(=O)[C@@H]1CCCN1C(=O)C(C)(C)NC(=O)[C@H](CC(C)C)NC(=O)CNC(=O)C(C)(C)NC(=O)[C@@H](NC(=O)C(C)(C)NC(=O)[C@H](CCC(N)=O)NC(=O)C(C)(C)NC(=O)C(C)(C)NC(=O)[C@H](C)NC(=O)CNC(=O)C(C)(C)NC(C)=O)C(C)C)C(=O)N[C@@H](CCC(N)=O)C(=O)N[C@H](CO)CC(C)C [TC HA-II, trichorzin HA II] (Ac-[Aib]GA[Aib][Aib]Q[Aib]V[Aib]GL[Aib]PL[Aib][dIva]Q[Leu(ol)])
EC50 [1]: 13000 ± 2000 nM | cytotoxicity in HepG2 [1]: Minor cytotoxicity | DV Abnormalities [4]: + | pfMDR1 Clone Sensitivity [2]: - | shift in sensitivity upon PfMDR1 knockdown [3]: no differential sensitivity | EC50 [5]: 2200 ± 270 nM

CC[C@H](C)[C@H](NC(=O)[C@H](C)NC(=O)[C@@H]1CCCN1C(=O)C(C)(C)NC(=O)[C@H](CC(C)C)NC(=O)[C@H](CCC(N)=O)NC(=O)[C@@](C)(CC)NC(C)=O)C(=O)NC(C)(C)C(=O)N1CCC[C@H]1C(=O)N[C@](C)(CC)C(=O)N[C@@H](CC(C)C)C(=O)NC(C)(C)C(=O)N1CCC[C@H]1C(=O)N[C@H](CO)CC(C)C [HZ NPDG-H, harzianin NPDG H] (Ac-[dIva]QL[Aib]PAI[Aib]P[dIva]L[Aib]P[Leu(ol)])
EC50 [1]: > 25000 nM | cytotoxicity in HepG2 [1]: no cytotoxicity | DV Abnormalities [4]: + | EC50 increase in HZ NPDG-I resistant clones vs parental line ([2]; 4 resistant clones screened): 1.4 fold | pfMDR1 Clone Sensitivity [2]: - | Fold Change in IC50 vs the parental line, clone 1B2 [2]: 0.62 | Fold Change in IC50 vs the parental line, clone 1E2 [2]: 0.98 | Fold Change in IC50 vs the parental line, clone 2B3 [2]: 1.14 | Fold Change in IC50 vs the parental line, clone 3A3 [2]: 1.40 | pfMDR1 cKD Sensitivity [3]: + | shift in sensitivity upon PfMDR1 knockdown [3]: ~6 fold | EC50 [5]: 690 ± 90 nM

CC[C@H](C)[C@H](NC(=O)[C@H](CC(C)C)NC(=O)[C@H](CCC(N)=O)NC(=O)[C@@](C)(CC)NC(C)=O)C(=O)NC(C)(C)C(=O)N1CCC[C@H]1C(=O)N[C@](C)(CC)C(=O)N[C@@H](CC(C)C)C(=O)NC(C)(C)C(=O)N1CCC[C@H]1C(=O)N[C@H](CO)CC(C)C [HZ NPDG-I, harzianin NPDG I] (Ac-[dIva]QLI[Aib]P[dIva]L[Aib]P[Leu(ol)])
EC50 [1]: > 25000 nM | cytotoxicity in HepG2 [1]: no cytotoxicity | DV Abnormalities [4]: + | pfMDR1 Clone Sensitivity [2]: ++ | Fold Change in IC50 vs the parental line, clone 1B2 [2]: 8.70 | Fold Change in IC50 vs the parental line, clone 1E2 [2]: 5.70 | Fold Change in IC50 vs the parental line, clone 2B3 [2]: 7.00 | Fold Change in IC50 vs the parental line, clone 3A3 [2]: 4.50 | fold change, clone 1D5 ([2]; flask 1, IC50 vs Dd2-B2): 4.65 | fold change, clone 1H3 ([2]; flask 1, IC50 vs Dd2-B2): 7.57 | fold change, clone Harzianin-Dd2-1B2 ([2]; flask 1, IC50 vs Dd2-B2): 8.64 | fold change, clone Harzianin-Dd2-1C12 ([2]; flask 1, IC50 vs Dd2-B2): 9.71 | fold change, clone Harzianin-Dd2-1E2 ([2]; flask 1, IC50 vs Dd2-B2): 5.63 | IC50 ([2]; flask 1, read-out: IC50, clone 1D5): 0.249 nM | IC50 ([2]; flask 1, read-out: IC50, clone 1H3): 0.406 nM | IC50 ([2]; flask 1, read-out: IC50, clone Harzianin-Dd2-1B2): 0.463 nM | IC50 ([2]; flask 1, read-out: IC50, clone Harzianin-Dd2-1C12): 0.52 nM | IC50 ([2]; flask 1, read-out: IC50, clone Harzianin-Dd2-1E2): 0.302 nM | fold change, clone 2B7 ([2]; flask 2, IC50 vs Dd2-B2): 3.87 | fold change, clone 2E9 ([2]; flask 2, IC50 vs Dd2-B2): 6.77 | fold change, clone Harzianin-Dd2-2B3 ([2]; flask 2, IC50 vs Dd2-B2): 6.98 | fold change, clone Harzianin-Dd2-2E8 ([2]; flask 2, IC50 vs Dd2-B2): 5.31 | fold change, clone Harzianin-Dd2-2G7 ([2]; flask 2, IC50 vs Dd2-B2): 4.60 | IC50 ([2]; flask 2, read-out: IC50, clone 2B7): 0.0859 nM | IC50 ([2]; flask 2, read-out: IC50, clone 2E9): 0.15 nM | IC50 ([2]; flask 2, read-out: IC50, clone Harzianin-Dd2-2B3): 0.155 nM | IC50 ([2]; flask 2, read-out: IC50, clone Harzianin-Dd2-2E8): 0.118 nM | IC50 ([2]; flask 2, read-out: IC50, clone Harzianin-Dd2-2G7): 0.102 nM | fold change, clone 3A5 ([2]; flask 3, IC50 vs DD2-B2): 4.30 | fold change, clone 3B7 ([2]; flask 3, IC50 vs DD2-B2): 4.05 | fold change, clone 3G7 ([2]; flask 3, IC50 vs DD2-B2): 3.98 | fold change, clone Harzianin-Dd2-3A3 ([2]; flask 3, IC50 vs DD2-B2): 4.51 | fold change, clone Harzianin-Dd2-3C6 ([2]; flask 3, IC50 vs DD2-B2): 4.68 | fold change, clone Harzianin-Dd2-3G11 ([2]; flask 3, IC50 vs DD2-B2): 3.93 | IC50 ([2]; flask 3, read-out: IC50, clone 3A5): 0.188 nM | IC50 ([2]; flask 3, read-out: IC50, clone 3B7): 0.177 nM | IC50 ([2]; flask 3, read-out: IC50, clone 3G7): 0.174 nM | IC50 ([2]; flask 3, read-out: IC50, clone Harzianin-Dd2-3A3): 0.197 nM | IC50 ([2]; flask 3, read-out: IC50, clone Harzianin-Dd2-3C6): 0.204 nM | IC50 ([2]; flask 3, read-out: IC50, clone Harzianin-Dd2-3G11): 0.172 nM | pfMDR1 cKD Sensitivity [3]: ++ | shift in sensitivity upon PfMDR1 knockdown [3]: 43 fold | EC50 [5]: 260 ± 30 nM
